Data from patent US10238676B2, “Application of ginsenoside RG3 in preparing medicine for preventing and/or treating dementia, and medicine for treating dementia” (priority 2013, dated 2019).

Tests used:
[1] = system: patients with Alzheimer's disease; assay: Revised Hasegawa dementia scale (HDS-R) scoring of patients with Alzheimer's disease; type: in vivo, human
Method: Both groups take medicine for 12 continuous weeks. 2 ml of cerebrospinal fluid is collected by lumbar puncture, and is stored at −80° C., the β-amyloid protein (Aβ) content is determined by using enzyme-linked immunosorbent assay (ELISA). A revised Hasegawa dementia scale (HDS-R) is used to score, and the scores before and after treatment are compared, increasing in scores means validness, and unchanging or decreasing in scores means invalidness. The enumeration data adopts χ^2 test, the comparison of measurement data adopts t-test, all data is processed by adopting SPSS12.0 statistical software.
Analysis on the clinical therapeutic effect of the two groups.

[2] = system: patients with mild or moderate Alzheimer's disease; assay: Placebo-controlled clinical research, MMSE/CDR/ADL, mild or moderate Alzheimer's disease (Test Example 4); type: in vivo, human
Description: 89 patients with mild or moderate Alzheimer's disease are divided into two groups randomly, one of which take ginsenoside Rg3, and the other placebos. There are 46 patients in the group taking Rg3, with 21 male and 25 female, aged from 58 to 87 (72.6±6.8), scoring from 10 to 24 (17.8±2.3) points in the mini-mental state examination (MMSE); there are 43 patients taking placebos, with 19 male and 24 female aged from 57 to 88 (71.8±8.2), scoring from 10 to 24 (18.2±2.7) points in MMSE. There are no obvious differences between the ginsenoside Rg3 group and the placebo group with respect to gender, age and MMSE scores. The patents in the group taking ginsenoside Rg3 use the ginsenoside Rg3 naristillae once a day for 12 continuous weeks, with 10 mg/ml for each time.
For the patients taking placebos, except that what is used for intranasal administration are placebos, the rest is conducted according to the same administration method as that adopted by those taking ginsenoside Rg3.
The ginsenoside Rg3 naristillae has a concentration of 10 mg/ml, and colors, characters, tastes and dosages of the placebos are the same as those of the ginsenoside Rg3 naristillae. The ginsenoside Rg3 naristillae and the placebos are applied once a day for 12 continuous weeks. Examination is conducted once every four weeks before and after medication, and the examination method is as follows:
(§1) (1) MMSE Screening of AD: examining patients' cognitive functions (orientation, memory, computational power, language competence, ability in applying visual-spatial segment etc.; (2) Examining patents' dementia degrees using the clinical dementia rating (CDR); (3) Examining patents' activities of daily living using the activity of daily living scale (ADL).
SPSS statistical software is adopted for examination results. T-test is adopted before and after treatment, and it is also adopted for the ginsenoside Rg3 naristillae group and the placebo control group. For scoring results of MMSE, CDR and ADL of patients with AD before treatment, see table 5

[3] = cited from earlier work
[4] = system: rat model with Alzheimer's disease; assay: Channel-type water maze test, learning and memory of rat model with Alzheimer's disease; type: in vivo, Wistar rats; conditions: AD model rats
Method: Water maze pre-training is performed after feeding for 1 week under the stable condition of laboratory, 60 rats with similar body weights and good flexibility are selected, and are divided into 6 groups randomly, a normal control group, a sham operated control group, a model control group, and high-dose, medium-dose and low-dose ginsenoside Rg3 groups (10, 5, 2.5 mg/kg/d), wherein each group has 10 animals.
The molding method applying intraperitoneal injection of 0.96% D-galactose prepared by normal saline is applied to rats to make model rat, 5 mL/kg, once daily for 6 continuous weeks. The rat of sham operated control group are injected with equivalent normal saline. The rat groups of the model control group and high-dose, medium-dose and low-dose ginsenoside Rg3 groups are intracranially injected with IBO starting from the 43th day, and each side is slowly injected with 1 μL of IBO, the sham operated group's rats are injected with equivalent normal saline in the same encephalic region (for 4 continuous weeks). The normal control group's rat are without any processing and eat and drink normally. The rats of high-dose, medium-dose and low-dose ginsenoside Rg3 groups are administered intragastrically with ginsenoside Rg3 oral emulsion daily while molding, and are administered for 4 w (weeks) after molding.
The changes of animal behavioristics in each group are tested by channel-type water maze test, and the learning and memory abilities of rats are evaluated by number of entering blind ends and the time needed to reach the terminal. All test results are expressed in mean±standard deviation, and the intergroup difference is subjected to variance analysis by adopting SPSS10.0 statistical package.

[5] = system: patients with mild or moderate Alzheimer's disease; assay: Self-controlled clinical research, MMSE/CDR/ADL, mild or moderate Alzheimer's disease (Test Example 5); type: in vivo, human
Method: 99 patients with mild or moderate Alzheimer's disease, among which 47 are male, 52 are female, all aged from 55 to 85 (73.5±7.6), MMSE score is […] (16.3±2.6) points.
Patients with AD all use the ginsenoside Rg3 naristillae once a day, 10 mg/ml each time, and keep using it for 12 weeks.
Examination is conducted once every four weeks before and after medication, and the medication method is as follows:
as §1, with “MMSE screening” for “MMSE Screening”, “visual-spatial” for “visual-spatial segment”, “dementia degree” for “dementia degrees”, “(3) examining” for “(3) Examining”
SPSS statistical software is adopted for examination results. T-test is adopted before and after treatment, and it is also adopted for the ginsenoside Rg3 naristillae group and the placebo control group.

[6] = cited from earlier work; remark: listed apart in the source
[7] = Content of ginsenoside Rg3 in rat cerebrospinal fluid (BBB test, LC/MS/MS); type: in vivo, SD rats; conditions: rats, orally 10 mg/kg
Method: 1) Oral administration: an oral preparation of ginsenoside Rg3 is given to SD rats by lavage, the medicines of all high-dosage, medium-dosage and low-dosage groups are: 20, 10 and 5 mg/kg (the dosage above is pure dosage of Rg3)/bid, respectively, and each dosage group has 18 rats;
Rat cerebrospinal fluid is sucked after orally, topically and injection administering different preparations of ginsenoside Rg3 for 4 hours. […] Each rat is anesthetized with 10% chloral hydrate by intraperitoneal injection, the head of the rat is fixed by brain straight body positioning ear rods and front tooth rods, the occipital region is sheared and sterilized, and a longitudinal incision (about 2 cm) is cut along the posterior midline, and the muscles at the dorsal part of napex are bluntly separated with a pair of scissors. […]
The medicine concentrations in the rat cerebrospinal fluid are determined by LC/MS/MS methods. […]

[8] = of 18 patients per group, 12 weeks
[9] = 46 AD patients, Rg3 naristillae 10 mg/ml intranasal once a day
[10] = Rg3 oral emulsion (embodiment 17) intragastric, 10 mg/kg/d
[11] = Rg3 oral emulsion intragastric, 2.5 mg/kg/d
[12] = Rg3 oral emulsion intragastric, 5 mg/kg/d
[13] = 99 AD patients, Rg3 naristillae 10 mg/ml once a day
[14] = Test Example 5, versus before treatment

## CC(C)=CCC[C@](C)(O)[C@H]1CC[C@]2(C)[C@@H]1[C@H](O)C[C@@H]1[C@@]3(C)CC[C@H](O[C@@H]4O[C@H](CO)[C@@H](O)[C@H](O)[C@H]4O[C@@H]4O[C@H](CO)[C@@H](O)[C@H](O)[C@H]4O)C(C)(C)[C@@H]3CC[C@]12C [Ginsenoside Rg3, 20(R)-ginsenoside Rg3]
[1]; 18 AD patients per group, Rg3 oral liquid 10 mg/d or donepezil 5 mg/d, 12 weeks
  effective rate (patients increased in HDS-R scores): 77.8%
[1]; AD inpatients, n = 18, Rg3 oral liquid 10 mg/d or donepezil 5 mg/d orally, 12 weeks
  Scores of clinical symptom (HDS-R), post treatment: 18.7 ± 8.1^#Δ
[1]; AD inpatients, n = 18 per group, baseline
  Scores of clinical symptom (HDS-R), before treatment: 12.3 ± 5.2
[1]; [8]
  number of patients constant in scores: 3
  number of patients decreased in scores: 1
  number of patients increased in scores of clinical symptom: 14
[2]; 46 AD patients, baseline
  ADL score before treatment: 47.2 ± 7.9 points
  CDR score before treatment: 1.9 ± 0.3 points
  MMSE score before treatment: 17.8 ± 2.3 points
[2]; [9]
  ADL score after treatment for 12 weeks: 40.5 ± 7.6 points
  CDR score after treatment for 12 weeks: 1.2 ± 0.2 points
[2]; 46 AD patients, Rg3 naristillae (embodiment 29) 10 mg/ml intranasal once a day
  MMSE score after treatment for 12 weeks: 24.1 ± 2.0 points
[2]; Test Example 4, Rg3 naristillae, 12 weeks
  decrease of ADL score after treatment compared with before treatment: 7.1 points
[3]; animal pharmacokinetic experiments, oral preparations
  medicine in native form not absorbed and excreted through feces: about 80%
[3]; oral
  oral absorption percentage: about 10.28%
[4]; [10]
  Error times: 1.01 ± 0.41 time
  Swimming out time: 12.26 ± 3.26 s
[4]; [11]
  Error times: 1.82 ± 0.43 time
  Swimming out time: 32.26 ± 3.21 s
[4]; [12]
  Error times: 1.10 ± 0.44 time
  Swimming out time: 19.26 ± 3.23 s
[5]; 99 AD patients, baseline
  ADL score before treatment: 49.6 ± 8.2 points
  CDR score before treatment: 2.1 ± 0.3 points
  MMSE score before treatment: 16.3 ± 2.6 points
[5]; [13]
  ADL score, treatment for 4 weeks: 48.2 ± 7.9 points
  ADL score, treatment for 12 weeks: 42.5 ± 7.3 points
  CDR score, treatment for 4 weeks: 1.9 ± 0.2 points
  CDR score, treatment for 12 weeks: 1.5 ± 0.2 points
  MMSE score, treatment for 4 weeks: 17.1 ± 1.9 points
  MMSE score, treatment for 12 weeks: 19.8 ± 1.7 points
[5]; [14]
  decrease of ADL score after treatment: 7.1 points
  decrease of CDR score after treatment for 12 weeks: 0.6 points
  increase of MMSE score after treatment for 12 weeks: 3.5 points
[6]
  lipid solubility and water solubility: relatively poor
[7]
  Ginsenoside Rg3 in cerebrospinal fluid sample (FIG. 2C chromatogram): 10.8 ng/g
